Several values for one entry are separate records, joined by “and”; a condition that tells them apart may be missing. Equal entries are not always repeated.
Tested on: caries
Test: 6-month comparison of silver-diamine-fluoride (SDF) and fluoride varnish in school aged children
Assay type: in vivo
Method: A fluoride composition was used in the study.
The compositions were applied once at the time of the initial exam using a tiny brush to any decayed area for 3 min, then the child rinsed.

[1] = after 6 months, applied once to decayed area for 3 min

For silver diamine fluoride [SDF], which “SDF Number Needed To Treat, Active Caries” value ([1/(Varnish % − SDF %)], 6 months) is on record?
Its value is 1.2.

And the “SDF Prevented Fraction, Active Caries” value ([(Varnish % − SDF %)/Varnish %], 6 months)?
The value was 82.7.

What about the “reduction in active caries compared to fluoride varnish” value (after 6 months) of the same substance?
The value was “about 80%”.

And the “Active Caries, # of School Children, Frequency” value [1]?
Its value is 20.

And the “Active Caries, # of School Children, Percent” value [1]?
The value was 16% and 16.8%.

And the “Active and Arrested Caries in same child, # of School Children, Frequency” value [1]?
Its value is 69.

And the “Active and Arrested Caries in same child, # of School Children, Percent” value [1]?
Its value is 58.0%.

And the “Arrested Caries, # of School Children, Frequency” value [1]?
Its value is 27.

What about the “Arrested Caries, # of School Children, Percent” value [1] of the same substance?
The value was 22.7%.

What about the “Dental Fillings, # of School Children, Frequency” value [1] of the same substance?
Its value is 3.

And the “Dental Fillings, # of School Children, Percent” value [1]?
Its value is 2.5%.

Reference: patent publication US20100247456A1, “METHODS AND COMPOSITIONS FOR PREVENTING CARIES” (priority 2009, published 2010)
